The source of these data is PMC8955485, “Journey on VX-809-Based Hybrid Derivatives towards Drug-like F508del-CFTR Correctors: From Molecular Modeling to Chemical Synthesis and Biological Assays” (Pharmaceuticals, 2022).

As usually defined, the EC50 is the concentration at which the effect is half-maximal.

Where “and” joins values, the source holds several entries; their conditions need not be identical. Identical values can stand only once. Like-named read-outs stand apart in the source and are kept apart here.

In assay [1] the target is T1, F508del-CFTR (Homo sapiens, UniProt P13569, DEL508-508). The experiment in a line: HS-YFP functional assay for F508del-CFTR correctors in CFBE41o- cells. In kind it is cell-based. Set-up: expressed in transfected cells. The following applies: for F508del-CFTR corrector activity (in words): CFBE41o- cells, HS-YFP assay, 24 h; for EC50: CFBE41o- cells stably expressing F508del-CFTR and HS-YFP, 24 h incubation, stimulation with forskolin 20 µM plus VX-770 1 µM. Here is the method:
The ability of these compounds to correct the basic defects related to F508del mutant was evaluated on immortalized CFBE41o-bronchial epithelial cells stably expressing F508del-CFTR and the halide sensitive yellow fluorescent protein (HS-YFP).
The measurements of the rate of HS-YFP quenching caused by iodide influx allowed us to determine the activity of F508del-CFTR, after incubation with the compounds, as cited. Activity was then compared to that of cells treated with the corrector VX-809 (1 µM) or with vehicle alone (DMSO).
Within the novel third series of hybrids herein proposed, based on their potency and efficacy in terms of CFTR rescue, we selected six compounds and determined the dose–response relationships (Figure 6). To this aim, F508del-CFTR expressing CFBE41o-cells were treated for 24 h with our hybrids 9b, 9f, 9g, 9h, 9j, and 9y and then mutant CFTR activity was measured by using the YFP functional assay (see Materials and Methods section for details).
Immortalized bronchial epithelial CFBE41o-cells with stable co-expression of the halide-sensitive yellow fluorescent protein (HS-YFP) and of F508del-CFTR were cultured using MEM medium supplemented with 10% fetal calf serum, 100 U/mL penicillin, 2 mM L-glutamine, and […] streptomycin.
CFBE41o-cells co-expressing mutants CFTR and HS-YFP were plated (50,000 cells/well) on clear-bottom 96-well black microplates (Corning Life Sciences, Acton, MA) and grown at 37 °C in 5% CO2 for 24 h. For the corrector assay, CFBE41o-cells were treated for further 24 h with compounds as indicated. The following day, prior to the assay, the culture medium was removed and cells were stimulated for 30 min at 37 °C with 60 µL PBS (containing 137 mM NaCl, 2.7 mM KCl, 8.1 mM Na2HPO4, 1.5 mM KH2PO4, 1mM CaCl2, and 0.5 mM MgCl2) plus forskolin (20 µM) and VX-770 (1 µM).
Microplates containing CFBE41o-cells were then transferred to a plate reader (FluoStar Galaxy; BMG Labtech, Offenburg, Germany) equipped with excitation (HQ500/20X: 500 ± 10 nm) and emission (HQ535/30M: 535 ± 15 nm) filters for YFP (Chroma Technology, Brattleboro, VT, USA). During the assay fluorescence was measured continuously for 14 s with 2 s before and 12 s after injection of an iodide containing solution (165 µL of a modified PBS containing I^- instead of Cl^-; final I^- concentration in the well: 100 mM).
Fluorescence data were normalized for the initial value and fluorescence quenching rate following I^- influx, were determined by fitting the final 10 s of data for each well with an exponential function to extrapolate initial slope (dF/dt).
To evaluate the dose–response relationships, activity slopes obtained for each compound at the different concentrations were fitted with the Hill equation using the Igor software (WaveMetrics) to extrapolate EC50, maximal effect, and Hill coefficient.

Assay [2] concerns the target T1, F508del-CFTR. Set-up: expressed in transfected cells. Conditions: first series of hybrids, cited from earlier work; for pEC50: from EC50 of ref 27.

T1 sequence (P13569 with tags, fused parts or gaps DEL508-508): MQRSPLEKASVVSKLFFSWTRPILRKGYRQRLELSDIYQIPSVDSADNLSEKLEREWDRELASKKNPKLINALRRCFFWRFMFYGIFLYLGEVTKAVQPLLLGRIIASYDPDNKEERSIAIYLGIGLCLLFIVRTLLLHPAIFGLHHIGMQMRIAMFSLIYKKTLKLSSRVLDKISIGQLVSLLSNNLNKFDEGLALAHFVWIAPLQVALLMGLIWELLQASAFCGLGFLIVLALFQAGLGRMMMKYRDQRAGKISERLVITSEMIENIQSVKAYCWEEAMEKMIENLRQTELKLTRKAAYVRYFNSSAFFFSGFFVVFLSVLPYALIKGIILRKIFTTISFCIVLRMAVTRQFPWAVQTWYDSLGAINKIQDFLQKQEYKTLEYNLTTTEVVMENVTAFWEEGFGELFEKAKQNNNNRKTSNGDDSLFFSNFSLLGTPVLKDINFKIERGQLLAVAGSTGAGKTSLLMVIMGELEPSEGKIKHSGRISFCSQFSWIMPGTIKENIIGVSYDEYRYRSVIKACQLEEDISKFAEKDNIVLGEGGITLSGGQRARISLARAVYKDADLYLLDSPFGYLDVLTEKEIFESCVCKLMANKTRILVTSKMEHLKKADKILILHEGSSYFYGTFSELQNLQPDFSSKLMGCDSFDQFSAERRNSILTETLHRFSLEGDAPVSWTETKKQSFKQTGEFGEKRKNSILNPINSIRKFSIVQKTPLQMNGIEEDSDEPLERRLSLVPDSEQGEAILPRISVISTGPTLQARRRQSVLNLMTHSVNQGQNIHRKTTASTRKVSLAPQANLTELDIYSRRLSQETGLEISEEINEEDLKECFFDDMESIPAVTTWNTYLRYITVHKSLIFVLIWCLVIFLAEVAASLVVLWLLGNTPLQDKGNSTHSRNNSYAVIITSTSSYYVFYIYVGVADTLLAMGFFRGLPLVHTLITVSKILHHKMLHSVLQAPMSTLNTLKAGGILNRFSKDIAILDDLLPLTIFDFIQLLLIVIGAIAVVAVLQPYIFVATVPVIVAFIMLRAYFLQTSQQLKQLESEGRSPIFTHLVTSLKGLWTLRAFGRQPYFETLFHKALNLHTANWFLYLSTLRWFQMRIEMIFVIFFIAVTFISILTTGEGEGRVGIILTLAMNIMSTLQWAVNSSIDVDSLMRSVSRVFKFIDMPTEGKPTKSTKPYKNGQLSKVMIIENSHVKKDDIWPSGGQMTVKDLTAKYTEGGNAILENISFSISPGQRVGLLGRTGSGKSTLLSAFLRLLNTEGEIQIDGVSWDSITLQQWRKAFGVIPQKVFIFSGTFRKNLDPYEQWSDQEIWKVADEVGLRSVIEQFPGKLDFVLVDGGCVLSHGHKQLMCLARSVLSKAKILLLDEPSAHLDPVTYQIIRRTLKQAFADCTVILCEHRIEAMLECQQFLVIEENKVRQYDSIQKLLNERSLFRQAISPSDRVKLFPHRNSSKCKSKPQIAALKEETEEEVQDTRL

Regarding `O=C(/C=C\c1ccc2c(c1)OCO2)Nc1nc(-c2ccccc2)c(C(=O)c2ccccc2)s1` [Compound 14b], the “F508del-CFTR corrector activity (in words)” value in assay [1] is recorded as “not tolerated”.

With `CCOC(=O)c1ccc(C(=O)c2sc(NC(=O)C3(c4ccc5c(c4)OCO5)CC3)nc2-c2ccc(OC)cc2)cc1` [Compound 9e], the EC50 in assay [1] amounted to 560 nM.

With `Cc1sc(NC(=O)C2(c3ccc4c(c3)OCO4)CC2)nc1-c1ccc(C(=O)O)cc1` [Compound 5f], in assay [2], the EC50 is 2900 nM and the pEC50 was 5.54 M.

As for `O=C(Nc1nc(-c2cccc(O)c2)cs1)C1(c2ccc3c(c2)OC(F)(F)O3)CC1` [Compound 6c], in assay [2], the EC50 is 1300 nM and the pEC50 was 5.89 M.

In the case of `Cc1sc(NC(=O)C2(c3ccc4c(c3)OCO4)CC2)nc1-c1cccc(O)c1` [Compound 5c], in assay [2], the concentration giving a half-maximal response (EC50) is 1200 nM and the pEC50 is 5.92 M.

For `CC(Cc1ccc2c(c1)OCO2)C(=O)Nc1nc(-c2ccccc2)c(C(=O)c2ccccc2)s1` (centres unmarked) [Compound 13b], the “F508del-CFTR corrector activity (in words)” value in assay [1] was “not tolerated”.

Take `O=C(c1ccccc1)c1sc(NC(=O)C2(c3ccc(Cl)cc3)CC2)nc1-c1ccccc1` [Compound 18]: the “F508del-CFTR corrector activity (in words)” value in assay [1] is listed as “poorly effective”.

For the compound `Cc1sc(NC(=O)C2(c3ccc4c(c3)OCO4)CC2)nc1-c1ccc(O)cc1` [Compound 5d], in assay [2], the concentration for a half-maximal effect (EC50) was 3900 nM and the pEC50 is recorded as 5.41 M.

Take `COc1cccc(C(=O)c2sc(NC(=O)C3(c4ccc5c(c4)OCO5)CC3)nc2-c2cccc(OC)c2)c1` [Compound 9o]: in assay [1], the EC50 was 210 nM.

For `COc1ccc(-c2nc(NC(=O)C3(c4ccc5c(c4)OCO5)CC3)sc2C(=O)c2ccccc2)cc1` [Compound 9a, 1-(benzo[d][1, 3]dioxol-5-yl)-N-(5-benzoyl-4-(4-methoxyphenyl)thiazol-2-yl)cyclopropane-1-carboxamide], in assay [1], the EC50 was determined as 350 nM.

Regarding `O=C(Nc1nc(-c2ccc(Br)cc2)cs1)C1(c2ccc3c(c2)OCO3)CC1` [Compound 4b], in assay [2], the EC50 is 4900 nM and the pEC50 is 5.31 M.

On to `Cc1sc(NC(=O)C2(c3ccc4c(c3)OC(F)(F)O4)CC2)nc1-c1ccc(Br)cc1` [Compound 6a], for which, in assay [2], the EC50 is 3800 nM and the pEC50 is recorded as 5.42 M.

On to `O=C(Nc1nc(-c2ccc(O)cc2)cs1)C1(c2ccc3c(c2)OCO3)CC1` [Compound 5a], for which, in assay [2], the EC50 is 1800 nM and the pEC50 was 5.74 M.

On to `Cc1sc(NC(=O)C2(c3ccc4c(c3)OC(F)(F)O4)CC2)nc1-c1cccc(Cl)c1` [Compound 6b], for which, in assay [2], the concentration for a half-maximal effect (EC50) is 5400 nM and the pEC50 is 5.27 M.

As to `CSc1ccc(-c2nc(NC(=O)C3(c4ccc5c(c4)OCO5)CC3)sc2C(=O)c2ccc(-c3ccccc3)cc2)cc1` [Compound 9s, N-(5-([1,1′-biphenyl]-4-carbonyl)-4-(4-(methylthio)phenyl)thiazol-2-yl)-1-(benzo[d][1,3]dioxol-5-yl)cyclopropane-1-carboxamide], the EC50 in assay [1] was 130 nM.

Take `CCOC(=O)c1sc(NC(=O)C2(c3ccc4c(c3)OCO4)CC2)nc1-c1ccc(Br)cc1` [Compound 2b]: in assay [2], the half-maximal effective concentration (EC50) is 300 nM and the pEC50 is listed as 6.52 M.

Turning to `COc1ccc(-c2nc(NC(=O)C3(c4ccc5c(c4)OCO5)CC3)sc2C(=O)c2ccc(OC(F)(F)F)cc2)cc1` [Compound 9c], in assay [1], the EC50 amounted to 140 nM.

For `O=C(Nc1nc(-c2ccc(Cl)cc2)cs1)C1(c2ccc3c(c2)OCO3)CC1` [Compound 4a], in assay [2], the half-maximal effective concentration (EC50) is 2900 nM and the pEC50 is recorded as 5.54 M.

Turning to `COC(=O)c1ccc(-c2nc(NC(=O)C3(c4ccc5c(c4)OCO5)CC3)sc2C(=O)c2ccc(-c3ccccc3)cc2)cc1` [Compound 9r, Methyl 4-(5-([1,1′-biphenyl]-4-carbonyl)-2-(1-(benzo[d][1,3]dioxol-5-yl)cyclopropane-1-carboxamido)thiazol-4-yl)benzoate], in assay [1], the EC50 stood at 120 nM.

For the compound `O=C(c1ccc(-c2ccccc2)cc1)c1sc(NC(=O)C2(c3ccc4c(c3)OCO4)CC2)nc1-c1ccc(Cl)cc1` [Compound 9u, N-(5-([1,1′-biphenyl]-4-carbonyl)-4-(4-chlorophenyl)thiazol-2-yl)-1-(benzo[d][1,3]dioxol-5-yl)cyclopropane-1-carboxamide], the EC50 in assay [1] amounted to 640 nM.

For `O=C(O)c1ccc(-c2csc(NC(=O)C3(c4ccc5c(c4)OCO5)CC3)n2)cc1` [Compound 5e], in assay [2], the concentration for a half-maximal effect (EC50) was > 5000 nM and 5000 nM; the pEC50 is reported as 5.30 M.

For the compound `O=C(Nc1nc(-c2cccc(Cl)c2)cs1)C1(c2ccc3c(c2)OCO3)CC1` [Compound 4c], in assay [2], the concentration giving a half-maximal response (EC50) is 8200 nM and the pEC50 was 5.09 M.

Consider `CCOC(=O)c1ccc(C(=O)c2sc(NC(=O)C3(c4ccc5c(c4)OCO5)CC3)nc2-c2cccc(OC)c2)cc1` [Compound 9l], for which, in assay [1], the EC50 is 490 nM.

Regarding `COc1cccc(C(=O)c2sc(NC(=O)C3(c4ccc5c(c4)OCO5)CC3)nc2-c2cccnc2)c1` [Compound 9w], in assay [1], the EC50 amounted to 1520 nM.

On to `COc1ccc(C(=O)c2sc(NC(=O)C3(c4ccc5c(c4)OCO5)CC3)nc2-c2ccccc2OC)cc1` [Compound 9p, 1-(benzo[d][1,3]dioxol-5-yl)-N-(5-(4-methoxybenzoyl)-4-(2-methoxyphenyl)thiazol-2-yl)cyclopropanecarboxamide], for which, in assay [1], the EC50 worked out at 220 nM.

Regarding `Cc1sc(NC(=O)C2(c3ccc4c(c3)OCO4)CC2)nc1-c1ccc(Br)cc1` [Compound 3b], in assay [2], the EC50 is 1900 nM and the pEC50 is reported as 5.72 M.

In the case of `Cc1sc(NC(=O)C2(c3ccc4c(c3)OCO4)CC2)nc1-c1ccc(Cl)cc1` [Compound 3a], in assay [2], the EC50 was 2900 nM and the pEC50 is 5.54 M.

For `CCOC(=O)c1sc(NC(=O)C2(c3ccc4c(c3)OCO4)CC2)nc1-c1ccc(Cl)cc1` [Compound 2d], in assay [2], the EC50 is 900 nM and the pEC50 was 6.05 M.

As to `Cc1sc(NC(=O)C2(c3ccc4c(c3)OCO4)CC2)nc1-c1ccc(F)cc1` [Compound 3e], in assay [2], the 50% effective concentration (EC50) was 900 nM and the pEC50 was 6.05 M.

Turning to `COc1ccc(-c2nc(NC(=O)C3(c4ccc5c(c4)OCO5)CC3)sc2C(=O)c2ccc(-c3ccccc3)cc2)cc1` [Compound 9f], in assay [1], the EC50 was found to be 140 nM.

`COc1cccc(C(=O)c2sc(NC(=O)C3(c4ccc5c(c4)OCO5)CC3)nc2-c2ccc(Cl)cc2)c1` [Compound 9x]: the EC50 in assay [1] worked out at 370 nM.

With `CC(=O)Nc1ccc(-c2csc(NC(=O)C3(c4ccc5c(c4)OCO5)CC3)n2)cc1` [Compound 5g], in assay [2], the concentration for a half-maximal effect (EC50) was > 5000 nM and 5000 nM; the pEC50 is given as 5.30 M.

Regarding `O=C(Nc1nc(-c2cccc(O)c2)cs1)C1(c2ccc3c(c2)OCO3)CC1` [Compound 5b], in assay [2], the EC50 is 2300 nM and the pEC50 is recorded as 5.64 M.

`O=C(Nc1nc(-c2ccc(O)cc2)cs1)C1(c2ccc3c(c2)OC(F)(F)O3)CC1` [Compound 6d]: in assay [2], the EC50 is 1700 nM and the pEC50 is 5.77 M.

For `CCOC(=O)c1sc(NC(=O)C2(c3ccc4c(c3)OCO4)CC2)nc1-c1cccc(Cl)c1` [Compound 2c], in assay [2], the EC50 is 550 nM and the pEC50 was 6.26 M.

In the case of `O=C(Nc1nc(-c2ccc(I)cc2)cs1)C1(c2ccc3c(c2)OCO3)CC1` [Compound 4d], in assay [2], the EC50 is 1200 nM and the pEC50 is on record as 5.92 M.

Take `Cc1sc(NC(=O)C2(c3ccc4c(c3)OCO4)CC2)nc1-c1cccc(Cl)c1` [Compound 3c]: in assay [2], the half-maximal effective concentration (EC50) is 2300 nM and the pEC50 is 5.64 M.

Take `O=C(Nc1nc(-c2cccc(F)c2)cs1)C1(c2ccc3c(c2)OCO3)CC1` [Compound 4e]: in assay [2], the concentration for a half-maximal effect (EC50) is 2100 nM and the pEC50 was 5.68 M.

For `Cc1sc(NC(=O)C2(c3ccc4c(c3)OCO4)CC2)nc1-c1ccccc1` [Compound 3d], in assay [2], the EC50 was 1600 nM and the pEC50 is reported as 5.80 M.

Take `O=C(c1ccccc1)c1sc(NC(=O)C2(c3ccc4c(c3)OCO4)CC2)nc1-c1ccccc1` [Compound 2a]: in assay [2], the 50% effective concentration (EC50) is 87 nM and the pEC50 is on record as 7.06 M.
